{
  "source": "patent US20200353179A1",
  "about": "“Device for Deterring Abuse of Drugs” (EIGHTY EIGHT PHARMA, INC., priority 2017, published 2020)",
  "origin": "cited, not measured here",
  "key": {"[1]": {"system": "pharmacologic effects of intravenously administered heroin"}, "[2]": {"settings": "800 mg daily for up to one week"}},
  "note": "Where a name gives a salt, the structure may show the parent alone. Read-outs that look alike come from different tables or passages of the source.",
  "data": [
    {"smiles": "O=C1CC[C@@]2(O)[C@H]3Cc4ccc(O)c5c4[C@@]2(CCN3CC2CC2)[C@H]1O5", "note": "[naltrexone hydrochloride]", "values": [
      {"measurement": "duration of blockade of pharmacologic effects of heroin", "setting": "[1]; 50 mg naltrexone hydrochloride, 25 mg intravenously administered heroin", "result": "≤ 24", "unit": "hours"},
      {"measurement": "duration of blockade", "setting": "[1]; doubling the dose of naltrexone hydrochloride", "result": 48, "unit": "h"},
      {"measurement": "effect on the subjective effects of intravenously administered opioids", "setting": "[1]; intravenously administered opioids", "result": "markedly attenuates or completely blocks, reversibly"},
      {"measurement": "duration of blockade", "setting": "[1]; tripling the dose of naltrexone hydrochloride", "result": "about 72 hours"},
      {"measurement": "toxicity in human subjects", "setting": "[2]", "result": "no evidence of toxicity"},
      {"measurement": "signs produced by high doses", "setting": "animals; high doses, generally >1,000 mg/kg", "result": "salivation, depression/reduced activity, tremors, and convulsions"},
      {"measurement": "cause of mortalities in animals", "setting": "animals; high-dose naltrexone administration", "result": "tonic-clonic convulsions and/or respiratory failure"}
    ]}
  ]
}
